Measurements published in patent publication US20020094522A1, “Means and methods for monitoring non-nucleoside reverse transcriptase inhibitor antiretroviral therapy and guiding therapeutic decisions in the treatment of HIV/AIDS” (priority 2000, published 2002).

Tests used:
Type in all cases: cell-based, HIV-1
[1] = system: RTV-652 (patient sample 98-652); conditions: values <1 = increased susceptibility
Description: The resistance test vectors containing a functional luciferase gene cassette were constructed and host cells were transfected with the resistance test vector DNA. The resistant test vectors contained patient-derived reverse transcriptase and protease sequences that were either susceptible or resistant to the antiretroviral agents, such as nucleoside reverse transcriptase inhibitors, non-nucleoside reverse transcriptase inhibitors and protease inhibitors. The resistance test vector viral particles produced by transfecting the resistance test vector DNA into host cells, either in the presence or absence of protease inhibitors, were used to infect target host cells grown either in the absence of NRTI or NNRTI or in the presence of increasing concentrations of the drug. […] The IC50 values were determined by plotting percent drug inhibition vs. log10 drug concentration.
(§1) Host cells were seeded in 10-cm-diameter dishes and were transfected several days after plating with resistance test vector plasmid DNA and the envelope expression vector. […] HIV capsid protein (p24) levels in the harvested cell culture media were determined by an EIA method as described by the manufacturer (SIAC; Frederick, Md.). […] The inhibitory effect of the drug was determined using the following equation: […]
An IC50 was determined for the resistance test vector pool for each drug tested.

A98G-G190S-RTV = test: Phenotypic susceptibility assay, A98G-G190S-RTV; conditions: values <1 = increased susceptibility
Description: (§2) The resistance test vectors containing a functional luciferase gene cassette were constructed and host cells were transfected with the resistance test vector DNA. The resistant test vectors contained patient-derived reverse transcriptase and protease sequences that were either susceptible or resistant to the antiretroviral agents, such as nucleoside reverse transcriptase inhibitors, non-nucleoside reverse transcriptase inhibitors and protease inhibitors. The resistance test vector viral particles produced by transfecting the resistance test vector DNA into host cells, either in the presence or absence of protease inhibitors, were used to infect target host cells grown either in the absence of NRTI or NNRTI or in the presence of increasing concentrations of the drug. The amount of luciferase activity produced in infected target host cells in the presence of drug was compared to the amount of luciferase produced in infected target host cells in the absence of drug. Drug resistance was measured as the amount of drug required to inhibit by 50% the luciferase activity detected in the absence of drug (inhibitory concentration 50%, IC50). The IC50 values were determined by plotting percent drug inhibition vs. log10 drug concentration.
(§3) Host cells were seeded in 10-cm-diameter dishes and were transfected several days after plating with resistance test vector plasmid DNA and the envelope expression vector. Transfections were performed using a calcium-phosphate precipitation procedure. The cell culture media containing the DNA precipitate was replaced with fresh medium, from one to 24 hours, after transfection. Cell culture media containing resistance test vector viral particles was harvested one to four days after transfection and was passed through a […] filter before being stored at −80° C. HIV capsid protein (p24) levels in the harvested cell culture media were determined by an EIA method as described by the manufacturer (SIAC; Frederick, Md.). […] The inhibitory effect of the drug was determined using the following equation: […]

V106A-Y181C-RTV = test: Phenotypic susceptibility assay, V106A-Y181C-RTV; conditions: site directed mutant
Description: as §2, §3

Y181C-F227L-RTV = test: Phenotypic susceptibility assay, Y181C-F227L-RTV; conditions: values <1 = increased susceptibility
Description: as §2, §3

[2] = system: RTV-1058 Clone 5 (L100I and K103N); test: Phenotypic susceptibility assay, RTV-1058 clone 5
Method: The resistance test vectors containing a functional luciferase gene cassette were constructed and host cells were transfected with the resistance test vector DNA. The resistant test vectors contained patient-derived reverse transcriptase and protease sequences that were either susceptible or resistant to the antiretroviral agents, such as nucleoside reverse transcriptase inhibitors, non-nucleoside reverse transcriptase inhibitors and protease inhibitors. […] The IC50 values were determined by plotting percent drug inhibition vs. log10 drug concentration.
as §1
A resistance test vector was constructed as described in Example 1 from a patient sample designated 98-1058. […] An IC50 was determined for the resistance test vector pool for each drug tested.

[3] = system: RTV-1057 (patient sample 98-1057); test: Phenotypic susceptibility assay, RTV-1057; conditions: RTV-1057, patient-derived pool
Method: Transfections were performed using a calcium-phosphate precipitation procedure. […] Cell lysates were assayed for luciferase activity (FIG. 3).
The drug inhibition curves are shown in (FIG. 3).
A resistance test vector was constructed as described in Example 1 from a patient sample designated 98-1057. This patient had been previously treated with ddI, d4T, AZT, and 3TC (NRTIs), saquinavir and indinavir (PRIs) and delavirdine (an NNRTI). Isolation of viral RNA and RT/PCR was used to generate a patient derived segment that comprised viral sequences coding for all of PR and aa 1-313 RT. The PDS was inserted into an indicator gene viral vector to generate resistance test vector designated RTV-1057. RTV-1057 was then tested in a phenotypic assay to determine accurately and quantitatively the level of susceptibility to a panel of anti-retroviral drugs. […] An IC50 was determined for the resistance test vector pool for each drug tested. The pattern of susceptibility to all of the drugs tested was examined and compared to known patterns of susceptibility.

[4] = system: V189L-RTV (HIV reverse transcriptase V189L); test: Phenotypic susceptibility assay, V189L-RTV; conditions: V189-RTV (V189L), site directed mutant
Description: as §2, §3

[5] = system: G190S-RTV (HIV reverse transcriptase G190S); test: Phenotypic susceptibility assay, G190S-RTV; conditions: for change in susceptibility compared to wild type reference RTV: Example 5; for fold change in susceptibility compared to wild type control RTV: values <1 = increased susceptibility
Description: as §2
as §3, with “Md.). Before infection, target cells (293 and 293/T) were plated in cell culture media. Control infections were performed using cell culture media from mock transfections (no DNA) or transfections containing the resistance test vector plasmid DNA without the envelope expression plasmid. One to three or more days after infection the media was removed and cell lysis buffer (Promega) was added to each well.” for “Md.).”
(§4) where RLUluc [drug] is the relative light unit of luciferase activity in infected cells in the presence of drug and RLUluc is the Relative Light Unit of luciferase activity in infected cells in the absence of drug. IC50 values were obtained from the sigmoidal curves that were generated from the data by plotting the percent inhibition of luciferase activity vs. the log10 drug concentration.

[6] = system: V106A-RTV (HIV reverse transcriptase V106A); test: Phenotypic susceptibility assay, V106A-RTV; conditions: site directed mutant
Description: as §2, §3

[7] = system: K101E-RTV (HIV reverse transcriptase K101E); test: Phenotypic susceptibility assay, K101E-RTV
Description: as §2
as §3, with “Md.). Before infection, target cells (293 and 293/T) were plated in cell culture media. Control infections were performed using cell culture media from mock transfections (no DNA) or transfections containing the resistance test vector plasmid DNA without the envelope expression plasmid. One to three or more days after infection the media was removed and cell lysis buffer (Promega) was added to each well.” for “Md.).”
as §4
The K101E and G190S mutations were introduced alone and in combination into resistance test vectors using the mega-primer method for site-directed mutagenesis (Sakar and Sommar, Ibid.). Resistance test vectors containing the K101E mutation (K101E-RTV), the G190S mutation (G190S-RTV) were then tested using the phenotypic assay described earlier and the results were compared to those determined using a genetically defined resistance test vector that was wild type at positions 101 and 190. […]

[8] = printed in the K101E-RTV sentence of b302, second set of values

| Compound | fold change in susceptibility (IC50) [1] [fold] | fold change in susceptibility compared to wild type control RTV (A98G-G190S-RTV) | fold loss of susceptibility compared to wild type control RTV (V106A-Y181C-RTV) | fold change in susceptibility compared to wild type control RTV (Y181C-F227L-RTV) [fold] | fold loss of susceptibility (IC50) [2] [fold] | fold decrease in susceptibility (IC50) [3] [fold] | fold change in susceptibility compared to wild type control RTV [4] [fold] | change in susceptibility compared to wild type reference RTV [5] | fold change in susceptibility compared to wild type control RTV [5] [fold] | fold loss of susceptibility compared to wild type control RTV [6] [fold] | fold loss of susceptibility compared to wild type control RTV [7, 8] [fold] | fold loss of susceptibility compared to wild type control RTV ([7]; {}) [fold] |
| --- | --- | --- | --- | --- | --- | --- | --- | --- | --- | --- | --- | --- |
| Cc1ccnc2c1NC(=O)c1cccnc1N2C1CC1 [nevirapine] | 5 | greater than 800 fold | greater than 800 fold | 285 | 120 | 610 | 1.3 | markedly less susceptible to nevirapine | 75 | 60 | 55 | 12 |
| CC(C)Nc1cccnc1N1CCN(C(=O)c2cc3cc(NS(C)(=O)=O)ccc3[nH]2)CC1 [delavirdine] | 0.97 | 0.8 fold | 100 fold | 0.89 | 250 | 35 | 1.8 | slightly more susceptible to delavirdine | 0.5 | 5 |  | 5 |
| O=C1Nc2ccc(Cl)cc2[C@@](C#CC2CC2)(C(F)(F)F)O1 [efavirenz] |  | greater than 250 fold | 4 fold | 0.99 |  |  | 1.3 |  | 8 | 1.7 | 30 | 5 |
